Experimental data published in patent US20240208992A1, “MACROCYCLES AS CFTR MODULATORS” (Idorsia Pharmaceuticals Ltd, priority 2021, published 2024).

Biological target: human F508del-CFTR (Homo sapiens, UniProt P13569, DEL508-508)
Test: F508del-CFTR cell surface expression (corrector activity), DiscoveRx ß-galactosidase complementation chemiluminescence assay in recombinant U2OS cell line;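 note: U2OS cells co-expressing ProLink-tagged F508del-CFTR and a membrane-anchored enzyme acceptor, where more surface CFTR restores β-galactosidase activity measured by chemiluminescence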
Conditions: for EC50: EC50, F508del-CFTR cell surface expression; for Emax: U2OS
[1] = U2OS cells, 16h compound incubation, geomean values
[2] = in relation to Emax of corrector lumacaftor (=100%), arithmetic mean values
[3] = U2OS cell line, 16h compound incubation, geomean values
[4] = in relation to the Emax of the corrector lumacaftor (=100%), U2OS cell line, 16h compound incubation, arithmetic mean values

Sequence of human F508del-CFTR (P13569 with tags, fused parts or gaps DEL508-508): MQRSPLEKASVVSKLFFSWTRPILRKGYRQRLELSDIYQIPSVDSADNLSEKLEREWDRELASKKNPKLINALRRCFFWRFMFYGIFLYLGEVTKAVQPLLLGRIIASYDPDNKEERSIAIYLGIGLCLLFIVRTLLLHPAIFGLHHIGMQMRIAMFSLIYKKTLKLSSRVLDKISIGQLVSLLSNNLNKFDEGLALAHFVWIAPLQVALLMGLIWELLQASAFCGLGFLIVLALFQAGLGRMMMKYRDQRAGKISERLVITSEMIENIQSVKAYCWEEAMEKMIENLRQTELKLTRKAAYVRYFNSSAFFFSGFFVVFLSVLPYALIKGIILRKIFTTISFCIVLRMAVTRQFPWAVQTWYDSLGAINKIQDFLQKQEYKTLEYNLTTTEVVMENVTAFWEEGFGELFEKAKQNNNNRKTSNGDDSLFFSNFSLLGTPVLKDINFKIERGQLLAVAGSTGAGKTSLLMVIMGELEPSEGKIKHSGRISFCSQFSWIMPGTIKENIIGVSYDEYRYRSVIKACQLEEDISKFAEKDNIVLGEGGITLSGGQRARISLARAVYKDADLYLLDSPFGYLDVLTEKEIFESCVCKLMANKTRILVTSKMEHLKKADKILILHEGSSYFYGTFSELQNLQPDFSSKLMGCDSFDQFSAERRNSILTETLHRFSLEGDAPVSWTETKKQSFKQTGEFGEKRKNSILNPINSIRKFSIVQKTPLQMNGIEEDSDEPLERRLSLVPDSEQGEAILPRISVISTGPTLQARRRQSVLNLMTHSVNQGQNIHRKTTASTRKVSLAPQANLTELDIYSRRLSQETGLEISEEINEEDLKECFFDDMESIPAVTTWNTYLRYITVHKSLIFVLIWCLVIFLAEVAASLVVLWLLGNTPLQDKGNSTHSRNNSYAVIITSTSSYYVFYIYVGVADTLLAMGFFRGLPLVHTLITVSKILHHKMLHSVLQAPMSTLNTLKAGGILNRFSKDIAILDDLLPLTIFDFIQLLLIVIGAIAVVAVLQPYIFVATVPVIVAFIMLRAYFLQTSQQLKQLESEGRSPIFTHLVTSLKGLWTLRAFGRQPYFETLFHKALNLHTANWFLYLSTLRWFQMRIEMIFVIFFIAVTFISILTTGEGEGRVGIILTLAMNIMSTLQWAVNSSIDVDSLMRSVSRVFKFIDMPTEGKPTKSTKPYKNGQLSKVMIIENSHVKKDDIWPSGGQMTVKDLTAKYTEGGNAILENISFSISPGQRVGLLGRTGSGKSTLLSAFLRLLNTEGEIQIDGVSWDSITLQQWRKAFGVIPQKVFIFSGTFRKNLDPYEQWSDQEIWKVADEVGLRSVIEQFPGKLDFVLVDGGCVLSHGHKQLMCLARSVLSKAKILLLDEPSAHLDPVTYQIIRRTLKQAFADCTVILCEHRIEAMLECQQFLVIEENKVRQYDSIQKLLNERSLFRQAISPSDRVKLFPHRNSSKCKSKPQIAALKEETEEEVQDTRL

EC50 [1] [nM]	Emax [2] [%]	Structure (SMILES)	EC50 [3] [nM]	also measured
194	159	CC(C)C[C@H]1C(=O)N2CC[C@@H](c3ccccc3)C[C@H]2C(=O)N[C@H](Cc2ccccc2)COc2cnc3ccccc3c2C(=O)N[C@H](C(=O)NCCc2cc(C3CC3)no2)CC(=O)N1C [Example 675, (9S,13S,19aS,22R)-22-benzyl-N-(2-(3-cyclopropylisoxazol-5-yl)ethyl)-13-isobutyl-12-methyl-7,11,14,20-tetraoxo-18-phenyl-7,8,9,10,11,12,13,14,17,18,19,19a,20,21,22,23-hexadecahydro-16H-pyrido[2′,1′:6,7][1]oxa[4,7,10,14]tetraazacycloheptadecino[17,16-c]quinoline-9-carboxamide]	–	–
–	–	CC(C)C[C@H]1C(=O)N2CCOC[C@@H]2C(=O)N[C@H](Cc2ccccc2)COc2ccc3ccccc3c2C(=O)N[C@H](C(=O)NCCc2nc3c(s2)CCC3)CC(=O)N1C [Example 370, (4aR,7R,18S,22S)-7-benzyl-N-(2-(5,6-dihydro-4H-cyclopenta[d]thiazol-2-yl)ethyl)-22-isobutyl-21-methyl-5,16,20,23-tetraoxo-1,2,4,4a,5,6,7,8,16,17,18,19,20,21,22,23-hexadecahydronaphtho[1,2-p][1,4]oxazino[3,4-f][1]oxa[4,7,10,14]tetraazacycloheptadecine-18-carboxamide]	388	Emax [4]: 229%
676	202	Cc1nc2ccc3c(c2o1)C(=O)N[C@H](C(=O)NCCc1cc(-c2ccccc2)no1)CC(=O)N(C)[C@@H](CC(C)C)C(=O)N(C)C1(CC1)C(=O)N[C@H](Cc1ccccc1)CO3 [Example 761, (8′R,14'S,18'S)-8′-Benzyl-14′-isobutyl-2′,12′,15′-trimethyl-10′,13′,16′,20′-tetraoxo-N-(2-(3-phenylisoxazol-5-yl)ethyl)-7′,8′,9′,10′,13′,14′,15′,16′,17′,18′,19′,20′-dodecahydro-12′H-spiro[cyclopropane-1,11′-oxazolo[4′,5′:5,6]benzo[1,2-p][1]oxa[4,7,10,14]tetraazacycloheptadecine]-18′-carboxamide]	–	–
–	–	COc1cccc2c1C(=O)N[C@H](C(=O)NCCc1ccc3c(c1)OCO3)CC(=O)N(C)[C@@H](CC(C)C)C(=O)N(C[C@@H]1CCCCO1)CC(=O)N[C@H](Cc1ccccc1)CO2 [Example 306, (3R,9S,13S)-N-(2-(benzo[d][1,3]dioxol-5-yl)ethyl)-3-benzyl-9-isobutyl-16-methoxy-10-methyl-5,8,11,15-tetraoxo-7-(((S)-tetrahydro-2H-pyran-2-yl)methyl)-2,3,4,5,6,7,8,9,10,11,12,13,14,15-tetradecahydrobenzo[p][1]oxa[4,7,10,14]tetraazacycloheptadecine-13-carboxamide]	923	Emax [4]: 139%
474	413	Cc1cc(CCNC(=O)[C@@H]2CC(=O)N(C)[C@@H](CC3CCCC3)C(=O)N(C)C3(CC3)C(=O)N[C@H](Cc3ccccc3)COc3cnc4ccccc4c3C(=O)N2)on1 [Example 432, (3′S,7′S,13′R)-13′-benzyl-7′-(cyclopentylmethyl)-6′,9′-dimethyl-N-(2-(3-methylisoxazol-5-yl)ethyl)-1′,5′,8′,11′-tetraoxo-2′,3′,4′,5′,6′,7′,8′,9′,11′,12′,13′,14′-dodecahydro-1′H-spiro[cyclopropane-1,10′-[1]oxa[4,7,10,14]tetraazacycloheptadecino[17,16-c]quinoline]-3′-carboxamide]	–	–
–	–	COc1cc(OC)c2c(c1)OC[C@@H](Cc1ccccc1)NC(=O)CN(CCC1CCCCC1)C(=O)[C@H](CC(C)C)N(C)C(=O)C[C@@H](C(=O)NCCc1ccc3c(c1)OCO3)NC2=O [Example 255, (3R,9S,13S)-N-(2-(benzo[d][1,3]dioxol-5-yl)ethyl)-3-benzyl-7-(2-cyclohexylethyl)-9-isobutyl-16,18-dimethoxy-10-methyl-5,8,11,15-tetraoxo-2,3,4,5,6,7,8,9,10,11,12,13,14,15-tetradecahydrobenzo[p][1]oxa[4,7,10,14]tetraazacycloheptadecine-13-carboxamide]	183	Emax [4]: 299%
494	155	COc1cc2c(cn1)OC[C@@H](Cc1ccccc1)NC(=O)[C@@H]1CCCCN1C(=O)[C@H](CC(C)C)N(C)C(=O)C[C@@H](C(=O)NCCc1noc(C3CC3)n1)NC2=O (mixture of isomers) [Example 516, (7S,11S,17aRS,20R)-20-benzyl-N-(2-(5-cyclopropyl-1,2,4-oxadiazol-3-yl)ethyl)-11-isobutyl-3-methoxy-10-methyl-5,9,12,18-tetraoxo-5,6,7,8,9,10,11,12,15,16,17,17a,18,19,20,21-hexadecahydro-14H-dipyrido[2,1-f:4′,3′-p][1]oxa[4,7,10,14]tetraazacycloheptadecine-7-carboxamide]	–	–
433	191	CC(C)C[C@H]1C(=O)N2CCCC[C@H]2C(=O)N[C@H](Cc2ccccc2)COc2cnc3ccc(F)cc3c2C(=O)N[C@H](C(=O)NCCc2nc(C3CC3)no2)CC(=O)N1C [Example 521, (9S,13S,19aS,22R)-22-benzyl-N-(2-(3-cyclopropyl-1,2,4-oxadiazol-5-yl)ethyl)-5-fluoro-13-isobutyl-12-methyl-7,11,14,20-tetraoxo-7,8,9,10,11,12,13,14,17,18,19,19a,20,21,22,23-hexadecahydro-16H-pyrido[2′,1′:6,7][1]oxa[4,7,10,14]tetraazacycloheptadecino[17,16-c]quinoline-9-carboxamide]	–	–
–	–	COc1noc(CCNC(=O)[C@@H]2CC(=O)N(C)[C@@H](CC(C)C)C(=O)N3CCCC[C@@H]3C(=O)N[C@H](Cc3ccccc3)COc3ccc4ncc(F)cc4c3C(=O)N2)n1 [Example 821, (9S,13S,19aR,22R)-22-benzyl-5-fluoro-13-isobutyl-N-(2-(3-methoxy-1,2,4-oxadiazol-5-yl)ethyl)-12-methyl-7,11,14,20-tetraoxo-7,8,9,10,11,12,13,14,17,18,19,19a,20,21,22,23-hexadecahydro-16H-pyrido[2′,1′:6,7][1]oxa[4,7,10,14]tetraazacycloheptadecino[16,17-f]quinoline-9-carboxamide]	–	EC50 (U2OS cells, 16h compound incubation, geomean of several measurements): 200 nM; Emax (in relation to the Emax of the corrector lumacaftor (=100%), U2OS cells, 16h compound incubation, arithmetic mean): 392%
311	391	CC[C@@H]1C(=O)N[C@H](Cc2ccccc2)COc2cc(C)nc(OC)c2C(=O)N[C@H](C(=O)NCCc2cc(OC)no2)CC(=O)N(C)[C@@H](CC(C)C)C(=O)N1C [Example 784, (3R,6R,9S,13S)-3-benzyl-6-ethyl-9-isobutyl-16-methoxy-N-(2-(3-methoxyisoxazol-5-yl)ethyl)-7,10,18-trimethyl-5,8,11,15-tetraoxo-2,3,4,5,6,7,8,9,10,11,12,13,14,15-tetradecahydropyrido[3,4-p][1]oxa[4,7,10,14]tetraazacycloheptadecine-13-carboxamide]	–	–
–	–	COc1cccc(CCNC(=O)[C@@H]2CC(=O)N(C)[C@@H](CC3CCCC3)C(=O)N(CCC3CCCCC3)CC(=O)N[C@H](Cc3ccccc3)COc3ccc4ccccc4c3C(=O)N2)c1 (mixture of isomers) [Example 300, (3RS,7S,13R)-13-benzyl-9-(2-cyclohexylethyl)-7-(cyclopentylmethyl)-N-(3-methoxyphenethyl)-6-methyl-1,5,8,11-tetraoxo-1,2,3,4,5,6,7,8,9,10,11,12,13,14-tetradecahydronaphtho[1,2-p][1]oxa[4,7,10,14]tetraazacycloheptadecine-3-carboxamide]	103	–
606	224	Cc1cc(CCNC(=O)[C@@H]2CC(=O)N(C)[C@@H](CC(C)C)C(=O)N3CCCC[C@@H]3C(=O)N[C@H](Cc3ccccc3)COc3ccc4c(cnn4C)c3C(=O)N2)on1 [Example 429, (8S,12S,18aR,21R)-21-benzyl-12-isobutyl-3,11-dimethyl-N-(2-(3-methylisoxazol-5-yl)ethyl)-6,10,13,19-tetraoxo-6,7,8,9,10,11,12,13,16,17,18,18a,19,20,21,22-hexadecahydro-3H,15H-pyrido[2′,11:6,7][1]oxa[4,7,10,14]tetraazacycloheptadecino[16,17-e]indazole-8-carboxamide]	–	–
80	345	COc1cc(CCNC(=O)[C@@H]2CC(=O)N(C)[C@@H](CC(C)C)C(=O)N(C)[C@H](CC(F)(F)F)C(=O)N[C@H](Cc3ccccc3)COc3cc(C)nc(OC)c3C(=O)N2)on1 [Example 791, (3R,6R,9S,13S)-3-benzyl-9-isobutyl-16-methoxy-N-(2-(3-methoxyisoxazol-5-yl)ethyl)-7,10,18-trimethyl-5,8,11,15-tetraoxo-6-(2,2,2-trifluoroethyl)-2,3,4,5,6,7,8,9,10,11,12,13,14,15-tetradecahydropyrido[3,4-p][1]oxa[4,7,10,14]tetraazacycloheptadecine-13-carboxamide]	–	–
–	–	COc1cccc(CCNC(=O)[C@@H]2CC(=O)N(C)[C@@H](CC(C)C)C(=O)N(C[C@H]3CCCCO3)CC(=O)N[C@H](Cc3ccccc3)COc3ccc4ccccc4c3C(=O)N2)c1 (mixture of isomers) [Example 164, (3RS,7S,13R)-13-benzyl-7-isobutyl-N-(3-methoxyphenethyl)-6-methyl-1,5,8,11-tetraoxo-9-(((R)-tetrahydro-2H-pyran-2-yl)methyl)-1,2,3,4,5,6,7,8,9,10,11,12,13,14-tetradecahydronaphtho[1,2-p][1]oxa[4,7,10,14]tetraazacycloheptadecine-3-carboxamide]	519	–

Structure (SMILES)	EC50 [1] [nM]	Emax [2] [%]	EC50 [3] [nM]	also measured
COc1cccc(CCNC(=O)[C@@H]2CC(=O)N(C)[C@@H](CC(C)C)C(=O)N(C)CC(=O)N[C@H](Cc3ccccc3)COc3ccc4c(c3C(=O)N2)CCO4)c1 [Example 450, (3S,7S,13R)-13-benzyl-7-isobutyl-N-(3-methoxyphenethyl)-6,9-dimethyl-1,5,8,11-tetraoxo-1,2,3,4,5,6,7,8,9,10,11,12,13,14,19,20-hexadecahydrobenzofuro[4,5-p][1]oxa[4,7,10,14]tetraazacycloheptadecine-3-carboxamide]	379	107	–	–
